In data set [1] the test system is Cysteine protease B (Leishmania mexicana). Put plainly: Inhibitory potency against Cysteine protease B, expressed as kinetic constant (kcat/Km).
Compound in data set [2]: C[C@@H](O)[C@H](NC(=O)[C@H](CCCN=C(N)N)NC(=O)[C@H](Cc1ccccc1)NC(=O)[C@H](CCCN=C(N)N)NC(=O)[C@@H]1CCCN1C(=O)[C@@H](N)Cc1ccc([N+](=O)[O-])cc1)C(=O)NCC(=O)N[C@@H](CO)C(=O)N[C@@H](CCCCNC(=O)c1ccccc1N)C(=O)NCC(=O)O
The experiment in a line: Inhibitory potency against Cysteine protease B, expressed as kinetic constant (Km). The note with it: Leishmania mexicana.

Square brackets hold non-standard residues; d marks the D form. Peptide text beside a SMILES is read from it. Phe(4-NO2) = N[C@@H](Cc1ccc([N+](=O)[O-])cc1)C(=O)O; 2Abz = Nc1ccccc1C(=O)O

`C[C@@H](O)[C@H](NC(=O)[C@H](CCCN=C(N)N)NC(=O)[C@H](Cc1ccccc1)NC(=O)[C@H](CCCN=C(N)N)NC(=O)[C@@H]1CCCN1C(=O)[C@@H](N)Cc1ccc([N+](=O)[O-])cc1)C(=O)NCC(=O)N[C@@H](CO)C(=O)N[C@@H](CCCCNC(=O)c1ccccc1N)C(=O)NCC(=O)O` (H-[Phe(4-NO2)]PRFRTGSK(2Abz)G-OH) had a k cat/Km in data set [1] of 1300 mM/s.

B1: Human rhinovirus A protease (Human rhinovirus sp.), Q4U254 (protein)
chain: AFRPCNVNTKIGNAKCCPFVCGKAVTFKDRSTCSTYNLSSSLHHILEEDKRRRQVVDVMSAIFQGPISLDAPPPPAIADLLQSVRTPRVIKYCQIIMGHPAECQVERDLNIANSIIAIIANIISIAGIIFVIYKLFCSLQGPYSGEPKPKTKVPERRVVAQGPEEEFGRSILKNNTCVITTGNGKFTGLGIHDRILIIPTHADPGREVQVNGVHTKVLDSYDLYNRDGVKLEITVIQLDRNEKFRDIRKYIPETEDDYPECNLALSANQDEPTIIKVGDVVSYGNILLSGNQTARMLKYNYPTKSGYCGGVLYKIGQILGIHVGGNGRDGFSAMLLRSYFTGQIKVNKHATECGLPDIQTIHTPSKTKLQPSVFYDVFPGSKEPAVLTDNDPRLEVNFKEA
Take B1: in data set [2], the Km (commonly the substrate concentration at which the rate is half of its maximum) worked out at 1.13 µM.

The values are drawn from ChEMBL document CHEMBL1135405, “Solid-phase library synthesis, screening, and selection of tight-binding reduced peptide bond inhibitors of a recombinant Leishmania mexicana cysteine protease B” (J Med Chem, 2002).
